According to patent US10278957B2, “Opioid agonist peptides and uses thereof” (Protagonist Therapeutics, Inc., priority 2017, dated 2019):
Square brackets hold non-standard residues; d marks the D form. Peptide text beside a SMILES is read from it. Bip = N[C@@H](Cc1ccc(-c2ccccc2)cc1)C(=O)O; Dmt = Cc1cc(O)cc(C)c1C[C@H](N)C(=O)O; hPhe = N[C@@H](CCc1ccccc1)C(=O)O; dTic = O=C(O)[C@H]1Cc2ccccc2CN1; β3hF = N[C@H](CC(=O)O)Cc1ccccc1; Nle = CCCC[C@H](N)C(=O)O; Sar = CNCC(=O)O

Columns and labels:
μ-opioid receptor (MOR) = molecular target: T1, μ-opioid receptor (MOR) (Homo sapiens, UniProt P35372); assay: MOR agonist cAMP assay (HitHunter cAMP, forskolin-stimulated); format: cell-based
T1 construct: host or cells: cAMP Hunter CHO-K1 OPRM1 Gαi cell line
T1 sequence (P35372 whole entry): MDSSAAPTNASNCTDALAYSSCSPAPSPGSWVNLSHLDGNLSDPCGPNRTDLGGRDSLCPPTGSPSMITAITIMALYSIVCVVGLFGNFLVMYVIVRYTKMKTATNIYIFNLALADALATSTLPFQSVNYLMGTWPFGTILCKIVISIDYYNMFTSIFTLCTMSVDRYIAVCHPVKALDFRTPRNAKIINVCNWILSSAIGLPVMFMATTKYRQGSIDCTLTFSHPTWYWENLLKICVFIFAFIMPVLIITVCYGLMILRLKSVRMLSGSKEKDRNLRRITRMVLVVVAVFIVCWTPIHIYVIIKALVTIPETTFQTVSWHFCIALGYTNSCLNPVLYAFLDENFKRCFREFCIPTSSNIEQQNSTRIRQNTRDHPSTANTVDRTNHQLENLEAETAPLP
Experimental: (§1) The HitHunter® cAMP chemiluminescent assay kit (DiscoveRx, Cat# 90-0075 SM25) was used to detect cAMP production in cAMP Hunter™ Gαi cell lines over expressing either Human-ORPM1 (Discoverx, Catalog# 95-0107C2) or Human-ORPD1 (DiscoveRx, Catalog# 95-0108C2). Opioid agonist binding to the Gαi receptors inhibits the intracellular cAMP accumulation induced by forskolin, which activates adenylate cyclase and increases intracellular levels of cAMP.
(§2) Cells were cultured in media consisting of Ham's F-12 Nutrient Mix (Life Technologies, Catalog#31765035), 10% FBS (Life Technologies, Catalog# 16140-071), 4 mM GlutaMAX (Life Technologies, Catalog#35050-061), […] (Life Technologies), 100 ug/ml of Penn-Strep (Life Technologies) and 0.5 mg/ml Geneticin (Life Technologies, Catalog# 10131-027). The cultures were maintained at 37° C. under 5% CO2.
(§3) In preparation for cAMP assay, the cells were seeded at a density of 300,000 cells/ml in 100 ul of media/well in 96-well microplate. Wells that were designated for cAMP standards were left empty.
(§4) Opioid agonist serial dilutions were prepared in separate dilution plate (11-point series of 3× (3-fold) dilution) in Cell Assay buffer, including 3× forskolin for Gαi target. For Hunter CHO-K1 OPRM1 or CHO-K1 OPRD1 Gαi Cell Lines, the final forskolin concentration was 20 uM.
(§5) 15 ul of each 3× opioid agonist serial dilution was added in the presence of forskolin in duplicate to the designated wells. The final concentration of each dilution was at 3× of the final screening concentration. The assay plate was incubated for 30 min, at 37° C. under 5% CO2.
(§6) Cellular cAMP concentrations were measured using the HitHunter cAMP Assay kit following the manufacturer's protocol. HitHunter cAMP assay is a gain-of-signal competitive immunoassay based on Enzyme Fragment Complementation (EFC) technology. The kit uses β-galactosidase (β-gal) enzyme split into Enzyme Donor (ED) and Enzyme Acceptor (EA). The cellular cAMP and ED-labelled cAMP compete for anti-cAMP antibody. […] When cellular cAMP level is high, it competes for the anti-cAMP antibody, thereby releasing ED-cAMP to complement with EA to produce a luminescent signal. The amount of signal is directly proportional to the amount of cAMP in cells and can be quantified using cAMP standards. The assay plates were read using a PerkinElmer Envision instrument to detect the chemiluminescence signal in each well (luminescence reader at 0.1 to 1 second/well). Data analysis was performed using Graphpad Prism 7.EC50 was calculated by nonlinear regression, using the four-parameter hill equation.

δ-opioid receptor (DOR) = molecular target: T2, δ-opioid receptor (DOR) (Homo sapiens, UniProt P41143); assay: DOR agonist cAMP assay (HitHunter cAMP, forskolin-stimulated); format: cell-based
T2 construct: host or cells: cAMP Hunter CHO-K1 OPRD1 Gαi cell line
T2 sequence (P41143 whole entry): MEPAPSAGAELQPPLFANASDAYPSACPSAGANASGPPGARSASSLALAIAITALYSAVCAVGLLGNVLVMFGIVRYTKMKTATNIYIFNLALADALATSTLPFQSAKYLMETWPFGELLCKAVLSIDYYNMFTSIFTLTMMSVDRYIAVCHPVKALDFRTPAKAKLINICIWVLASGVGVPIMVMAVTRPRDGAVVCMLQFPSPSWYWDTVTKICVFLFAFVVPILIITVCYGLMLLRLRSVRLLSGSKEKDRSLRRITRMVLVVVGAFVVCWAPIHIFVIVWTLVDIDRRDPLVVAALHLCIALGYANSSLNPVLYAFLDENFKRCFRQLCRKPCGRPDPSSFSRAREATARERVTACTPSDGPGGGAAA
Experimental: as §1, §2, §3, §4, §5, §6

C[C@@H](NC(=O)[C@@H](N)Cc1c[nH]c2ccc(O)cc12)C(=O)NCC(=O)N[C@H](CC(=O)N(C)CC(N)=O)Cc1ccccc1 [compound 63]
EC50 (μ-opioid receptor (MOR)): 50 to 200 nM
EC50 (δ-opioid receptor (DOR)): 50 to 200 nM

Cc1cc(O)cc(C)c1C[C@H](N)C(=O)N[C@H](CCCNC(=N)N)C(=O)N[C@@H](Cc1c[nH]cn1)C(=O)N[C@@H](CCCCN)C(N)=O [compound 4] (H-[Dmt][dR]HK-NH2)
EC50 (μ-opioid receptor (MOR)): 10 to 50 nM
EC50 (δ-opioid receptor (DOR)): > 200 nM

CCCC[C@@H](C(=O)O)N(C)C(=O)C[C@H](Cc1ccc(O)cc1)NC(=O)CNC(=O)[C@@H](C)NC(=O)[C@@H](N)Cc1c(C)cc(C(N)=O)cc1C [compound 168]
EC50 (μ-opioid receptor (MOR)): 1 to 10 nM
EC50 (δ-opioid receptor (DOR)): < 1 nM

Cc1cc(O)cc(C)c1C[C@H](N)C(=O)N[C@H](C)C(=O)N[C@@H](CC(C)C)C(=O)N[C@H](CC(=O)N(C)CC(N)=O)Cc1ccccc1 [compound 67] (H-[Dmt][dA]L[β3hF][Sar]-NH2)
EC50 (μ-opioid receptor (MOR)): < 1 nM
EC50 (δ-opioid receptor (DOR)): 10 to 50 nM

Cc1cc(O)cc(C)c1C[C@H](N)C(=O)N[C@H](CCC(=O)O)C(=O)NCC(=O)N[C@H](CC(=O)N(C)[C@@H](C)C(=O)O)Cc1ccccc1 [compound 185]
EC50 (μ-opioid receptor (MOR)): 1 to 10 nM
EC50 (δ-opioid receptor (DOR)): < 1 nM

Cc1cc(O)cc(C)c1C[C@H](N)C(=O)N[C@H](CCCNC(=N)N)C(=O)N[C@@H](Cc1ccc(-c2ccccc2)cc1)C(=O)N[C@@H](CCCCN)C(N)=O [compound 3] (H-[Dmt][dR][Bip]K-NH2)
EC50 (μ-opioid receptor (MOR)): 50 to 200 nM
EC50 (δ-opioid receptor (DOR)): > 200 nM

CCCC[C@@H](C(=O)O)N(C)C(=O)C[C@H](Cc1ccccc1)NC(=O)CNC(=O)[C@@H](CC(=O)O)NC(=O)[C@@H](N)Cc1c(C)cc(O)cc1C [compound 178]
EC50 (μ-opioid receptor (MOR)): < 1 nM
EC50 (δ-opioid receptor (DOR)): < 1 nM

CC[C@H](C)[C@H](NC(=O)[C@@H](C)NC(=O)[C@@H](N)Cc1c(C)cc(O)cc1C)C(=O)N[C@H](CC(=O)N(C)CC(N)=O)Cc1ccccc1 [compound 68] (H-[Dmt][dA]I[β3hF][Sar]-NH2)
EC50 (μ-opioid receptor (MOR)): < 1 nM
EC50 (δ-opioid receptor (DOR)): 10 to 50 nM

CCCC[C@@H](C(=O)O)N(C)C(=O)C[C@H](Cc1cccc(F)c1)NC(=O)CNC(=O)[C@@H](C)NC(=O)[C@@H](N)Cc1c(C)cc(O)cc1C [compound 144]
EC50 (μ-opioid receptor (MOR)): < 1 nM
EC50 (δ-opioid receptor (DOR)): < 1 nM

CCCC[C@@H](C(=O)O)N(C)C(=O)C[C@H](Cc1ccccc1F)NC(=O)CNC(=O)[C@@H](C)NC(=O)[C@@H](N)Cc1c(C)cc(O)cc1C [compound 143]
EC50 (μ-opioid receptor (MOR)): < 1 nM
EC50 (δ-opioid receptor (DOR)): < 1 nM

Cc1cc(O)cc(C)c1C[C@H](N)C(=O)N1Cc2ccccc2C[C@@H]1C(=O)N[C@@H](Cc1ccccc1)C(=O)N(C)CC(N)=O [compound 44] (H-[Dmt][dTic]F[Sar]-NH2)
EC50 (μ-opioid receptor (MOR)): < 1 nM
EC50 (δ-opioid receptor (DOR)): 1 to 10 nM

CCC[C@@H](C(=O)O)N(C)C(=O)C[C@H](Cc1ccccc1)NC(=O)CNC(=O)[C@@H](C)NC(=O)[C@@H](N)Cc1c(C)cc(C(N)=O)cc1C [compound 97]
EC50 (μ-opioid receptor (MOR)): < 1 nM
EC50 (δ-opioid receptor (DOR)): < 1 nM

CCCC[C@H](NC(=O)[C@H](CCc1ccccc1)NC(=O)CNC(=O)[C@@H](C)NC(=O)[C@@H](N)Cc1c(C)cc(O)cc1C)C(N)=O [compound 49]
EC50 (μ-opioid receptor (MOR)): < 1 nM

Cc1cc(O)cc(C)c1C[C@H](N)C(=O)N[C@H](CCCNC(=N)N)C(=O)N[C@@H](Cc1ccccc1)C(=O)N(C)[C@@H](CCCCN)C(N)=O [compound 5]
EC50 (μ-opioid receptor (MOR)): < 1 nM
EC50 (δ-opioid receptor (DOR)): > 200 nM

C[C@@H](NC(=O)[C@@H](N)Cc1ccc(C(N)=O)cc1)C(=O)NCC(=O)N[C@H](CC(=O)N(C)CC(N)=O)Cc1ccccc1 [compound 60]
EC50 (μ-opioid receptor (MOR)): 1 to 10 nM
EC50 (δ-opioid receptor (DOR)): 1 to 10 nM

CC[C@H](C)[C@@H](C(=O)O)N(C)C(=O)C[C@H](Cc1ccccc1)NC(=O)CNC(=O)[C@@H](C)NC(=O)[C@@H](N)Cc1c(C)cc(C(N)=O)cc1C [compound 95]
EC50 (μ-opioid receptor (MOR)): < 1 nM
EC50 (δ-opioid receptor (DOR)): 1 to 10 nM

Cc1cc(O)cc(C)c1C[C@H](N)C(=O)N[C@H](CCCNC(=N)N)C(=O)N[C@@H](Cc1ccccc1)C(=O)N(C)CC(N)=O [compound 9] (H-[Dmt][dR]F[Sar]-NH2)
EC50 (μ-opioid receptor (MOR)): < 1 nM
EC50 (δ-opioid receptor (DOR)): 1 to 10 nM

Cc1cc(O)cc(C)c1C[C@H](N)C(=O)N[C@H](C)C(=O)NCC(=O)N[C@H](CC(=O)N(C)[C@@H](Cc1ccccc1)C(=O)O)Cc1ccccc1 [compound 158]
EC50 (μ-opioid receptor (MOR)): < 1 nM
EC50 (δ-opioid receptor (DOR)): < 1 nM

Cc1cc(C(N)=O)cc(C)c1C[C@H](N)C(=O)N[C@H](C)C(=O)NCC(=O)N[C@H](CC(=O)NCC(N)=O)Cc1ccccc1 [compound 94]
EC50 (μ-opioid receptor (MOR)): < 1 nM
EC50 (δ-opioid receptor (DOR)): 1 to 10 nM

CC[C@H](C)[C@@H](C(=O)O)N(C)C(=O)C[C@H](Cc1ccccc1)NC(=O)CNC(=O)[C@@H](C)NC(=O)[C@@H](N)Cc1c(C)cc(O)cc1C [compound 113]
EC50 (μ-opioid receptor (MOR)): < 1 nM
EC50 (δ-opioid receptor (DOR)): < 1 nM

CCC[C@@H](C(=O)O)N(C)C(=O)C[C@H](Cc1ccccc1)NC(=O)CNC(=O)[C@@H](C)NC(=O)[C@@H](N)Cc1c(C)cc(O)cc1C [compound 162]
EC50 (μ-opioid receptor (MOR)): < 1 nM
EC50 (δ-opioid receptor (DOR)): < 1 nM

CC[C@H](C)[C@@H](C(=O)O)N(C)C(=O)C[C@H](Cc1ccccc1)NC(=O)CNC(=O)[C@@H](CCC(=O)O)NC(=O)[C@@H](N)Cc1c(C)cc(O)cc1C [compound 186]
EC50 (μ-opioid receptor (MOR)): 1 to 10 nM
EC50 (δ-opioid receptor (DOR)): < 1 nM

Cc1cc(C(N)=O)cc(C)c1C[C@H](N)C(=O)N1Cc2ccccc2C[C@H]1C(=O)NCC(=O)N[C@H](CC(=O)N(C)CC(N)=O)Cc1ccccc1 [compound 103]
EC50 (μ-opioid receptor (MOR)): 50 to 200 nM
EC50 (δ-opioid receptor (DOR)): 50 to 200 nM

CCCC[C@H](NC(=O)[C@H](CCc1ccccc1)NC(=O)[C@@H](C)NC(=O)[C@@H](N)Cc1c(C)cc(O)cc1C)C(N)=O [compound 48] (H-[Dmt][dA][hPhe][Nle]-NH2)
EC50 (μ-opioid receptor (MOR)): < 1 nM
EC50 (δ-opioid receptor (DOR)): < 1 nM

Cc1cc(O)cc(C)c1C[C@H](N)C(=O)N[C@H](C)C(=O)N[C@@H](CCc1ccccc1)C(=O)N(C)CC(N)=O [compound 46] (H-[Dmt][dA][hPhe][Sar]-NH2)
EC50 (μ-opioid receptor (MOR)): < 1 nM
EC50 (δ-opioid receptor (DOR)): < 1 nM

C[C@@H](NC(=O)[C@@H](N)Cc1ccc(C(=O)O)cc1)C(=O)NCC(=O)N[C@H](CC(=O)N(C)CC(N)=O)Cc1ccccc1 [compound 89]
EC50 (μ-opioid receptor (MOR)): 50 to 200 nM
EC50 (δ-opioid receptor (DOR)): 50 to 200 nM

Cc1cc(C(N)=O)cc(C)c1C[C@H](N)C(=O)N[C@H](C)C(=O)NCC(=O)N1Cc2ccccc2C[C@H]1C(=O)N(C)CC(N)=O [compound 108]
EC50 (μ-opioid receptor (MOR)): 1 to 10 nM
EC50 (δ-opioid receptor (DOR)): 10 to 50 nM

Cc1cc(O)cc(C)c1C[C@H](N)C(=O)N[C@H](CC(=O)O)C(=O)NCC(=O)N[C@H](CC(=O)N(C)[C@@H](C)C(=O)O)Cc1ccccc1 [compound 170]
EC50 (μ-opioid receptor (MOR)): < 1 nM
EC50 (δ-opioid receptor (DOR)): < 1 nM

Cc1cc(O)cc(C)c1C[C@H](N)C(=O)N[C@H](CC(=O)O)C(=O)NCC(=O)N[C@H](CC(=O)N(C)[C@H](C(=O)O)c1ccccc1)Cc1ccccc1 [compound 176]
EC50 (μ-opioid receptor (MOR)): < 1 nM
EC50 (δ-opioid receptor (DOR)): < 1 nM

Cc1cc(O)cc(C)c1C[C@H](N)C(=O)N1Cc2ccccc2C[C@H]1C(=O)NCC(=O)N[C@H](CC(=O)N(C)CC(N)=O)Cc1ccccc1 [compound 104]
EC50 (μ-opioid receptor (MOR)): 50 to 200 nM
EC50 (δ-opioid receptor (DOR)): 50 to 200 nM

Cc1cc(O)cc(C)c1C[C@H](N)C(=O)N[C@H](CC(=O)O)C(=O)NCC(=O)N[C@H](CC(=O)N(C)[C@@H](Cc1ccc(O)cc1)C(=O)O)Cc1ccccc1 [compound 180]
EC50 (μ-opioid receptor (MOR)): < 1 nM
EC50 (δ-opioid receptor (DOR)): < 1 nM

Cc1cc(O)cc(C)c1C[C@H](N)C(=O)N[C@H](CCCNC(=N)N)C(=O)N[C@@H](Cc1ccccc1)C(=O)N[C@@H](CCc1ccccc1)C(N)=O [compound 18] (H-[Dmt][dR]F[hPhe]-NH2)
EC50 (δ-opioid receptor (DOR)): 1 to 10 nM

CCCC[C@@H](C(=O)O)N(C)C(=O)[C@@H](Cc1ccccc1)N(C)C(=O)CNC(=O)[C@@H](C)NC(=O)[C@@H](N)Cc1c(C)cc(O)cc1C [compound 154]
EC50 (μ-opioid receptor (MOR)): < 1 nM
